Measurements published in publication PMC12392461, “Beyond Estrogenicity: A Comparative Assessment of Bisphenol A and Its Alternatives in In Vitro Assays Questions Safety of Replacements” (Environmental Science & Technology, 2025).
Read-outs that look alike come from different tables or passages of the source.

How the values were obtained:
[1] = biological target: T1, Peroxisome proliferator-activated receptor γ (Homo sapiens, UniProt P37231); test: cell-based; details: for EC10, linear: linear model; for logEC10: log-logistic model
T1 sequence (P37231 238-505 limits assumed): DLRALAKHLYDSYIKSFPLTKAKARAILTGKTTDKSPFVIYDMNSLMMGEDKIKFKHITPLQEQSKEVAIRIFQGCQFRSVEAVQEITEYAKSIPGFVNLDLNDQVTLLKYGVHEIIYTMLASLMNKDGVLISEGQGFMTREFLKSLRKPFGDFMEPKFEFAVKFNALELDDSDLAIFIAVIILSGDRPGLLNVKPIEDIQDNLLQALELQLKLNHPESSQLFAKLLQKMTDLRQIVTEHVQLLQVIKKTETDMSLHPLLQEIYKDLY
Outline: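 ERα-UAS-bla GripTite and PPARγ-UAS-bla β-lactamase reporter cells were seeded and held 24 h at 37 °C, 5% CO₂ before dosing. EC10 values used only concentrations below the IC10 from IncuCyte confluency. Emax% is the log-logistic curve maximum relative to the reference chemical's maximum.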

H4IIe (AhR CALUX) = system: H4IIe (AhR CALUX)
Protocol: (§1) Cell culture conditions and bioassay protocols including response detection are provided in Text S2.1–2.4 and Table S3. − Cell viability was determined from cell confluency using an IncuCyte S3 Live-Cell Analysis System (Sartorius AG, Essen, Germany) before and after exposure, except for SH-SY5Y cells (live–dead staining with Nuclear Green LcS1 and propidium iodide, Abcam, UK). For metabolic activation experiments, cell viability was assessed using the ToxBLAzer DualScreen Kit (Thermo Fisher Scientific) to capture the remaining toxicity in ERα-UAS-bla GripTite after treatment with the aCYP catalyst (details in Text S2.4).
(§2) For ARE, the concentration that triggered an induction ratio of 1.5 (ECIR1.5) was used as the benchmark value, as detailed in Text S2.5. IC10 values also served as a threshold for data analysis in all assays; only concentrations below IC10 were considered when deriving EC10 or ECIR1.5.
(§3) We measured the cytotoxicity of BPA and its alternatives in HEK293H (PPARγ), HEK293T (ERα), H4IIe (AhR CALUX), MCF7 (ARE/MMP), and differentiated SH-SY5Y cells (Table S6). […]
(§4) S2.2: Cell Seeding and Incubation. For all bioassays, cell suspensions in the respective assay medium were dispensed into each well of 384-well plates using a MultiFlo Dispenser (Biotek, (now Agilent), Winooski, VT, U.S.). After seeding, the plates were incubated at 37° C and 5% CO₂ for […]. The final cell densities and plate types were as follows: Black poly-D-lysine […]
(§5) 6500 cells/well, ERα: 5000 cells/well. White 384-well plates with a clear bottom (Product No.
(§6) NYC, U.S.) for AhR: 3250 cells/well. Black Collagen I coated plates were used (Product No.
(§7) S2.3: Chemical Dosing and Assay Analysis Procedures. The dosing procedure and high-throughput assay workflow have been described in detail before. 9 The dosing concentrations […]
(§8) Stock solutions were then either added directly to the respective cell culture medium or evaporated under nitrogen, followed by replenishment with fresh medium. The final solvent content in each well was kept below 1% for methanol, 0% for acetonitrile.
(§9) Dosing plates were prepared as 11 -step serial dilutions using a Hamilton Microlab Star robotic system (Hamilton, Bonaduz, Switzerland), and chemicals were dosed in duplicates by transferring 10 μL twice from the dosing plates to the cell plates . After quantifying cell confluency as described in S2. 4., the exposed cells were incubated at 37° C and 5% CO₂ for an additional 24 h. All chemicals were tested in all assays with at least three independent […]
(§10) S2.4: Cell Viability Measurement s and bioanalytical protocols . The confluency as a measure of cell viability was determined with an IncuCyte S3 Live -Cell Analysis System (Sartorius AG, Essen, Germany). With this method the confluency of cells in a microscopy image are normalized to control wells without cells and compared before and after 24 hours of exposure.
(§11) This method has been described previously 13. […]

HEK293H (PPARγ) = details: for IC10, linear: linear model
Protocol: as §1, §2, §3, §4, §5, §6, §7, §8, §9, §10, §11

HEK293T (ERα) = system: HEK293T (ERα)
Protocol: as §1, §2, §3, §4, §5, §6, §7, §8, §9, §10, §11

MCF7 (ARE/MMP) = system: MCF7 (ARE/MMP)
Protocol: as §1, §2, §3, §4, §5, §6, §7, §8, §9, §10, §11

[2] = PPARγ bioassay, dosing range all
[3] = Bioassay AhR, cytotoxicity, dosing range all, linear model fit
[4] = Bioassay AhR, cytotoxicity, dosing range all, log-logistic model fit
[5] = PPARγ bioassay cytotoxicity, dosing range all
[6] = PPARγ bioassay cytotoxicity, dosing range all, log-logistic model
[7] = Bioassay ARE, cytotoxicity, dosing range all, linear model fit
[8] = Bioassay ARE, cytotoxicity, dosing range all, log-logistic model fit
[9] = MMP bioassay cytotoxicity, dosing range all, linear model
[10] = MMP bioassay cytotoxicity, dosing range all, log-logistic model

SMILES: Cc1ccc(S(=O)(=O)NC(=O)Nc2cccc(OS(=O)(=O)c3ccc(C)cc3)c2)cc1 [Pergafast, N-(p-toluenesulfonyl)-N'-(3-(p-toluenesulfonyloxy)phenyl)urea]
- EC10, PPARγ (M) ([1]; 10% of maximum effect of rosiglitazone): 6.71 × 10^–7 M
- EC10, linear transformed [1, 2]: 6.71E-07
- EC10, linear [1, 2]: 9.42E-07
- logEC10 [1, 2]: -6.17
- SR-ScorePPARγ ([1]; SR-Score, sigma k=1, x=5): 1.00
- Specificity ratio (SRbaseline) SRPPARγ ([1]; against baseline cytotoxicity): 77.74
- Specificity ratio (SRcytotoxicity) SRPPARγ ([1]; against experimental cytotoxicity): 28.39
- EC10, PPARγ ([1]; effect): 0.671 µM
- log(1/EC10) PPARγ ([1]; input of the ToxPi score, values up to 1.00): 0.87
- Emax ([1]; read-out: Emax%PPARγ): 16%
- IC10, linear (H4IIe (AhR CALUX); [3]): no cytotoxicity
- logIC10 (H4IIe (AhR CALUX); [4]): no cytotoxicity
- IC10, linear transformed (HEK293H (PPARγ); [5]): 1.21E-06
- IC10, linear (HEK293H (PPARγ); [5]): 2.22E-05
- logIC10 (HEK293H (PPARγ); [6]): -4.72
- Toxic ratio (TR) TRPPARγ (HEK293H (PPARγ); against baseline cytotoxicity): 2.74
- IC10, HEK293, PPARγ (HEK293H (PPARγ); cytotoxicity, HEK293 (PPARγ assay cells)): 19.1 µM
- IC10, linear transformed (HEK293T (ERα); Bioassay ERα, cytotoxicity, dosing range all): 8.23E-06
- IC10, linear (HEK293T (ERα); Bioassay ERα, cytotoxicity, dosing range all, linear model fit): 1.21E-05
- logIC10 (HEK293T (ERα); Bioassay ERα, cytotoxicity, dosing range all, log-logistic model fit): -4.96
- Toxic ratio (TR) TRERα (HEK293T (ERα); against baseline cytotoxicity): 4.31
- IC10, HEK293, ERα (HEK293T (ERα); cytotoxicity, HEK293 (ERα assay cells)): 12.1 µM
- IC10, linear (MCF7 (ARE/MMP); [7]): 4.06E-05
- logIC10 (MCF7 (ARE/MMP); [8]): no cytotoxicity
- IC10, linear (MCF7 (ARE/MMP); [9]): no cytotoxicity
- logIC10 (MCF7 (ARE/MMP); [10]): no cytotoxicity

SMILES: CC1(C)C(O)C(C)(C)C1O (racemic) [r-TMCD, 2,2,4,4-Tetramethyl-1,3-cyclobutanediol (racemate)]
- EC10, linear [1, 2]: no effect
- logEC10 [1, 2]: no effect
- IC10, linear transformed (H4IIe (AhR CALUX); Bioassay AhR, cytotoxicity, dosing range all): 9.14E-03
- IC10, linear (H4IIe (AhR CALUX); [3]): 8.29E-03
- logIC10 (H4IIe (AhR CALUX); [4]): -2.04
- Toxic ratio (TR) TRAhR (H4IIe (AhR CALUX); against baseline cytotoxicity): 0.12
- IC10, H4IIe, AhR (H4IIe (AhR CALUX); cytotoxicity, H4IIe (AhR assay cells)): 8290 µM
- IC10, linear transformed (HEK293H (PPARγ); [5]): 6.71E-03
- IC10, linear (HEK293H (PPARγ); [5]): no cytotoxicity
- logIC10 (HEK293H (PPARγ); [6]): no cytotoxicity
- IC10, linear (HEK293T (ERα); ERα bioassay cytotoxicity, dosing range all, linear model): no cytotoxicity
- logIC10 (HEK293T (ERα); ERα bioassay cytotoxicity, dosing range all, log-logistic model): no cytotoxicity
- IC10, linear (MCF7 (ARE/MMP); [7]): no cytotoxicity
- logIC10 (MCF7 (ARE/MMP); [8]): no cytotoxicity
- IC10, linear (MCF7 (ARE/MMP); [9]): no cytotoxicity
- logIC10 (MCF7 (ARE/MMP); [10]): no cytotoxicity

SMILES: CC(C)CC(C)(c1ccc(O)cc1)c1ccc(O)cc1 [BP-MIBK, 4,4'-(1,3-Dimethylbutylidene)diphenol]
- EC10, linear [1, 2]: no effect
- logEC10 [1, 2]: no effect
- IC10, linear (H4IIe (AhR CALUX)): no cytotoxicity
- logIC10 (H4IIe (AhR CALUX); rat, 24 h): -4.05
- logIC10 (HEK293H (PPARγ); human, 24 h): -5.09
- IC10, linear (HEK293T (ERα)): no cytotoxicity
- logIC10 (HEK293T (ERα)): no cytotoxicity
- logIC10 (HEK293T (ERα); human, 24 h): -5.04
- IC10, linear (MCF7 (ARE/MMP)): no cytotoxicity
